According to article PMC10761660, “Preclinical evaluation of an ^18F-labeled N^ε-acryloyllysine piperazide for covalent targeting of transglutaminase 2” (EJNMMI Radiopharmacy and Chemistry, 2024):
Values joined by “and” are separate entries in the source; they are usually repeats but may differ in a detail not shown here. Identical values can stand only once. “Also recorded” adds a separate entry of the source. Like-named read-outs stand apart in the source and are kept apart here.

Columns and labels:
[1] = design: method as in Wodtke et al. [2021]; conditions: ref Wodtke et al. [2021]; cited from earlier work
[2] = Metabolic stability and arterial blood clearance in a normal Wistar rat; type: in vivo; conditions: for c02: i.v. 5.27 nmol; for half-life / Vd / clearance / k el: male, iv, 5.27 nmol; for half-life / Vd / clearance: Wistar, rat; for clearance: plasma
Experimental: The following procedure was performed as recently published (Laube et al. [2020]). For assessing the in vivo stability, [^18F]7b (69.8 MBq corresponding to 5.27 nmol in 0.5 mL 0.9% NaCl with 5% ethanol (v/v)) was injected i.v. into a male Wistar rat (body weight 170 g) under desflurane anesthesia (10% desflurane in 30% oxygen/air, v/v). Using a catheter, blood samples from femoral artery were taken at 1, 3, 5, 10, 20, 30, 60, and 120 min p.i. The resulting loss of volume was compensated by i.v. injection of E153. Plasma was separated by centrifugation (3 min; 13,000 × g) followed by precipitation of plasma proteins with ice-cold Supersol (EtOH 20% (v/v), Triton X-100 0.5% (v/v), EDTA 5 mM, o-Phenanthroline 0.5 mM, Saponin 0.1% (w/v)). Clear supernatant separated by a second centrifugation step (3 min; 13,000 × g) was analyzed by radio-HPLC (Hewlett Packard Series 1100 equipped with a γ-detector (Raytest Ramona), Zorbax SB-C18, 300 Å, 4 μm, 250 × 9.4 mm (Agilent), eluent A, 0.1% (v/v) trifluoroacetic acid in H2O; eluent B, 0.1% (v/v) trifluoroacetic acid in CH3CN). Gradient elution was performed using 95% eluent A for 5 min, 95% eluent A to 95% eluent B in 10 min, 95% eluent B for 5 min, and 95% eluent B to 95% eluent A in 5 min, 3 mL/min, 50 °C. The clear supernatant was also analyzed by radio-TLC using reversed-phase TLC plates (ALUGRAM RP-18W/UV254 from Macherey–Nagel, Düren, Germany) with a mobile phase of 50% CH3CN in water containing 0.1% trifluoroacetic acid. For total protein precipitation at 5 and 60 min p.i., plasma samples were diluted with twice the volume of 15% trichloroacetic acid (TCA) in water instead of Supersol. Clear supernatant was separated by centrifugation (3 min; 13,000 × g) and analyzed as described above.
The measured activity concentrations (decay-corrected) in the blood samples of the Wistar rat were transformed into concentrations of 7b by taking the molar activity of [^18F]7b into account. These values were corrected by the fractions of intact [^18F]7b as analyzed by radio-HPLC or radio-TLC. These corrected concentrations were plotted against the time and analysis was performed by nonlinear regression according to two-phase decay as implemented in GraphPad Prism (Plateau was set to 0, Fig. 3B). However, for derivation of pharmacokinetic parameters, the corrected concentrations were converted to their log values and plotted against the time (semi-logarithmic plot, see inset in Fig. 3B). By linear regression of the data from 3 to 30 min, values for c02 (putative concentration of 7b at the beginning of the elimination phase) and kel (elimination rate constant) were derived. C02 was obtained as antilog of the intercept at the y-axis and kel represents the slope of the line. By knowing these two parameters as well as the applied dose (D = 5.27 nmol), the apparent volume of distribution (VD) and the plasma clearance (CL) was calculated using equations 7 and 8 (Freissmuth et al. [2016]).7 VD=D/c02 8 CL=kβ×VD

[3] = tested on: A375-hS100A4 tumor xenograft (TGase 2 +); assay: Ex vivo biodistribution in tumor-bearing mice (A375-hS100A4); design: species or system mice (Rj:NMRI-Foxn1 nu/nu)
Experimental: (§1) For biodistribution studies in tumor-bearing mice, a number of 5 × 10^6 A375-hS100A4 or MeWo cells were resuspended in 100 µL PBS and injected subcutaneously into nude mice (Rj:NMRI-Foxn1 nu/nu). Tumor growth was monitored three times per week using caliper measurements. The injection of [^18F]7b and subsequent steps were performed as described above.

[4] = Ex vivo biodistribution in normal mice; design: species or system mice (Rj:NMRI-Foxn1 nu/nu); conditions: i.v., control conditions
Experimental: For biodistribution studies in normal mice, [^18F]7b (0.57 ± 0.03 MBq corresponding to 27 ± 1 pmol in 0.2 mL 0.9% NaCl with a maximum of 10% ethanol (v/v)) was injected i.v. into nude mice (Rj:NMRI-Foxn1 nu/nu, Janvier Laboratories, Le Genest-Saint-Isle, France, body weight 27.7 ± 3.4 g) without (control conditions) or with co-injection of ketoconazole (3 mg/animal). A stock solution of ketoconazole (141 mM) was prepared in ethanol/Tween-80 (1:1, v/v) by shaking over night at 45 °C. This solution was diluted with 0.9% NaCl (1:4, v/v) prior injection. The animals were sacrificed at 5 and 60 min p.i. by CO2 inhalation and cervical dislocation. Organs and tissues of interest were excised, weighed, and radioactivity was determined using the Wizard™3’’ gamma counter. Activity in selected organs and tissues was expressed as % injected dose per weight (% ID/g) or % injected dose (% ID).

Liver microsome assay = type: in vitro ADME, murine; conditions: MLM, without prior oxidation (data not shown)
[5] = design: method as in Wodtke et al. [2021]; conditions: in vitro; ref Wodtke et al. [2021]; cited from earlier work
[6] = tested on: MeWo tumor xenograft (TGase 2 −); assay: Ex vivo biodistribution in tumor-bearing mice (MeWo); design: species or system mice (Rj:NMRI-Foxn1 nu/nu)
Experimental: as §1

[7] = whole blood (arterial), radio-HPLC

For C=CC(=O)NCCCCC(NC(=O)Cc1ccccc1)C(=O)N1CCN(c2cccc([18F])n2)CC1 (centres unmarked) [[^18F]7b], the logD7.4 [1] is listed as 2.1, the “fraction of unmodified [^18F]7b in both blood components” value ([2]; 20 min p.i., plasma and erythrocytes) is listed as over 40% and the “residual intact [^18F]7b in intestinal content” value ([2]; 120 min (2 h) p.i., radio-HPLC) is listed as 7%. For the same compound, the “residual intact [^18F]7b in urine” value ([2]; 120 min (2 h) p.i., radio-HPLC) was 8%, the “binding of ^18F-activity to plasma proteins” value ([2]; ex vivo plasma, protein precipitation) was “not protein-bound; also recorded: quite low” and the c02 ([2]; intact fraction by radio-HPLC) was 22.4 nM. For the same compound, the c02 ([2]; intact fraction by radio-TLC) was 18.4 nM, the “terminal t1/2 (elimination half-life)” value ([2]; i.v., radio-HPLC) was 17 min and the half-life ([2]; arterial blood, i.v., radio-TLC, read-out: terminal t1/2) was 16 min. For the same compound, the Vd ([2]; arterial blood, radio-HPLC) was 0.235 L, the Vd ([2]; arterial blood, radio-TLC) was 0.287 L and 1.69 L/kg and the clearance ([2]; i.v., radio-HPLC data, read-out: plasma clearance (plasma CL)) was 56 mL/min/kg. The clearance ([2]; i.v., radio-HPLC, read-out: Plasma CL) was 9.5 mL/min and 56 mL/min/kg, the clearance ([2]; i.v., radio-TLC, read-out: Plasma CL) was 12.6 mL/min and 74 mL/min/kg and the half-life ([2]; whole blood (arterial), i.v., radio-HPLC, read-out: terminal t1/2 (elimination half-life)) was 17.2 min. It also gave a Vd [2, 7] of 1.38 L/kg, a k el ([2]; arterial blood, radio-TLC) of 0.000733 s⁻¹ and a k el [2, 7] of 0.000667 s⁻¹. For the same compound, the “^18F-activity in blood bound to erythrocytes” value ([2]; stable from 10 to 120 min p.i.) was “≈ 30%”, the “^18F-activity in blood located in the plasma fraction” value ([2]; stable from 10 to 120 min p.i.) was “≈ 60%” and the tumor/muscle ratio [3] was 1.4. It also gave an activity uptake kidneys ([4]; 5 min p.i.) of 7.9 %ID/g, an activity uptake liver ([4]; 5 min p.i.) of 15.7 %ID/g and an activity uptake femur ([4]; 60 min p.i.) of 3.9 %ID/g. The “injected activity in intestinal content” value ([4]; 60 min p.i.) was 50 %ID, the “injected activity in urine” value ([4]; 60 min p.i.) was 19 %ID and the susceptibility to glucuronidation (Liver microsome assay) was “not susceptible to glucuronidation”. For the same compound, the GSH reactivity [5] was “low” and the tumor/muscle ratio [6] was 1.0.
